Converted amounts (≈) assume the structure as drawn.
Assays:
Streptococcus pyogenes = experiment: In vitro antibacterial activity against Streptococcus pyogenes OMNFI BI; assay type: functional
Haemophilus influenzae = experiment: In vitro antibacterial activity against Haemophilus influenzae; assay type: functional
[1] = Mean MIC against gram negative; assay type: functional
Proteus mirabilis = experiment: In vitro antibacterial activity against Proteus mirabilis OBT 505; assay type: functional
Escherichia coli [2] = experiment: In vitro antibacterial activity against Escherichia coliCPX-R OBT 431; assay type: functional
Staphylococcus aureus [3] = experiment: In vitro antibacterial activity against Staphylococcus aureus MPR 5; assay type: functional
[4] = Mean MIC against gram positive; assay type: functional
Enterococcus faecalis [5] = experiment: In vitro antibacterial activity against Enterococcus faecalis UCMC 39690; assay type: functional
Klebsiella pneumoniae = experiment: In vitro antibacterial activity against Klebsiella pneumoniae ATCC 10031; assay type: functional
Pseudomonas aeruginosa [6] = experiment: In vitro antibacterial activity against Pseudomonas aeruginosa […] 9027; assay type: functional
Staphylococcus aureus [7] = experiment: In vitro antibacterial activity against Staphylococcus aureus M-R POMM 6214; assay type: functional
Pseudomonas aeruginosa [8] = experiment: In vitro antibacterial activity against Pseudomonas aeruginosa OBT 307; assay type: functional
Escherichia coli [9] = experiment: In vitro antibacterial activity against Escherichia coli 120; assay type: functional
Enterobacter cloacae = experiment: In vitro antibacterial activity against Enterobacter cloacae OMNFI 174; assay type: functional
Staphylococcus aureus [10] = experiment: In vitro antibacterial activity against Staphylococcus aureus ATCC 29213; assay type: functional
Proteus vulgaris = experiment: In vitro antibacterial activity against Proteus vulgaris CNUR 6; assay type: functional
Streptococcus pneumoniae = experiment: In vitro antibacterial activity against Streptococcus pneumoniae I 0.43; assay type: functional
Enterococcus faecalis [11] = experiment: In vitro antibacterial activity against Enterococcus faecalis LEP Br; assay type: functional
DNA gyrase = DNA gyrase (Escherichia coli, UniProt P0AES4+P0AES6); experiment: Inhibitory effect against Escherichia coli Gyrase in Supercoiling assay; assay type: protein-complex assay
Escherichia coli [12] = experiment: In vitro antibacterial activity against Escherichia coli ATCC 25922; assay type: functional
Staphylococcus aureus [13] = experiment: In vitro antibacterial activity against Staphylococcus aureus CPX-R OBT 687; assay type: functional
[14] = Mean MIC Against gram positive; assay type: functional

Cc1c(N2CCc3ccccc3C2)c(F)cc2c(=O)c(C(=O)O)cn(C3CC3)c12
MIC (Streptococcus pyogenes): 0.03 µg/mL (≈ 0.0764 µM) | MIC (Haemophilus influenzae): < 0.016 µg/mL | MIC [1]: 0.869 µg/mL (≈ 2.21 µM) | MIC (Proteus mirabilis): 4 µg/mL (≈ 10.2 µM) | MIC (Escherichia coli [2]): > 16 µg/mL | MIC (Staphylococcus aureus [3]): < 0.016 µg/mL | MIC [4]: 0.074 µg/mL (≈ 0.189 µM) | MIC (Enterococcus faecalis [5]): 0.06 µg/mL (≈ 0.153 µM) | MIC (Klebsiella pneumoniae): 0.06 µg/mL (≈ 0.153 µM) | MIC (Pseudomonas aeruginosa [6]): 4 µg/mL (≈ 10.2 µM) | MIC (Staphylococcus aureus [7]): < 0.016 µg/mL | MIC (Pseudomonas aeruginosa [8]): 16 µg/mL (≈ 40.8 µM) | MIC (Escherichia coli [9]): 0.25 µg/mL (≈ 0.637 µM) | MIC (Enterobacter cloacae): 0.5 µg/mL (≈ 1.27 µM) | MIC (Staphylococcus aureus [10]): < 0.016 µg/mL | MIC (Proteus vulgaris): 4 µg/mL (≈ 10.2 µM) | MIC (Streptococcus pneumoniae): 0.25 µg/mL (≈ 0.637 µM) | MIC (Enterococcus faecalis [11]): 0.5 µg/mL (≈ 1.27 µM) | IC50 (DNA gyrase): 7.64 µM | MIC (Escherichia coli [12]): 0.125 µg/mL (≈ 0.319 µM) | MIC (Staphylococcus aureus [13]): 1 µg/mL (≈ 2.55 µM)

O=C(O)c1cn(C2CC2)c2cc(N3CCc4ccccc4C3)c(F)cc2c1=O
MIC (Streptococcus pyogenes): 2 µg/mL (≈ 5.29 µM) | MIC (Haemophilus influenzae): < 0.016 µg/mL | MIC [1]: 1.15 µg/mL (≈ 3.04 µM) | MIC (Proteus mirabilis): 4 µg/mL (≈ 10.6 µM) | MIC (Escherichia coli [2]): > 16 µg/mL | MIC (Staphylococcus aureus [3]): < 0.016 µg/mL | MIC [4]: 0.21 µg/mL (≈ 0.555 µM) | MIC (Enterococcus faecalis [5]): 0.06 µg/mL (≈ 0.159 µM) | MIC (Klebsiella pneumoniae): 0.125 µg/mL (≈ 0.33 µM) | MIC (Pseudomonas aeruginosa [6]): 4 µg/mL (≈ 10.6 µM) | MIC (Staphylococcus aureus [7]): 0.25 µg/mL (≈ 0.661 µM) | MIC (Pseudomonas aeruginosa [8]): 8 µg/mL (≈ 21.1 µM) | MIC (Escherichia coli [9]): 0.25 µg/mL (≈ 0.661 µM) | MIC (Enterobacter cloacae): 1 µg/mL (≈ 2.64 µM) | MIC (Staphylococcus aureus [10]): < 0.016 µg/mL | MIC (Proteus vulgaris): > 16 µg/mL | MIC (Streptococcus pneumoniae): 0.25 µg/mL (≈ 0.661 µM) | MIC (Enterococcus faecalis [11]): 0.25 µg/mL (≈ 0.661 µM) | IC50 (DNA gyrase): 28.5 µM | MIC (Escherichia coli [12]): 0.25 µg/mL (≈ 0.661 µM) | MIC (Staphylococcus aureus [13]): 8 µg/mL (≈ 21.1 µM)

Cc1c(N2CCCCC2)c(N)cc2c(=O)c(C(=O)O)cn(C3CC3)c12
MIC (Streptococcus pyogenes): 0.5 µg/mL (≈ 1.46 µM) | MIC (Haemophilus influenzae): < 0.016 µg/mL | MIC [1]: 1 µg/mL (≈ 2.94 µM) | MIC (Proteus mirabilis): 4 µg/mL (≈ 11.7 µM) | MIC (Escherichia coli [2]): > 16 µg/mL | MIC (Staphylococcus aureus [3]): < 0.016 µg/mL | MIC [4]: 0.376 µg/mL (≈ 1.1 µM) | MIC (Enterococcus faecalis [5]): 1 µg/mL (≈ 2.93 µM) | MIC (Klebsiella pneumoniae): < 0.016 µg/mL | MIC (Pseudomonas aeruginosa [6]): 4 µg/mL (≈ 11.7 µM) | MIC (Staphylococcus aureus [7]): 0.125 µg/mL (≈ 0.366 µM) | MIC (Pseudomonas aeruginosa [8]): 16 µg/mL (≈ 46.9 µM) | MIC (Escherichia coli [9]): 0.5 µg/mL (≈ 1.46 µM) | MIC (Enterobacter cloacae): 1 µg/mL (≈ 2.93 µM) | MIC (Staphylococcus aureus [10]): 0.05 µg/mL (≈ 0.146 µM) | MIC (Proteus vulgaris): > 16 µg/mL | MIC (Streptococcus pneumoniae): 2 µg/mL (≈ 5.86 µM) | MIC (Enterococcus faecalis [11]): 0.5 µg/mL (≈ 1.46 µM) | IC50 (DNA gyrase): 9.37 µM | MIC (Escherichia coli [12]): 0.125 µg/mL (≈ 0.366 µM) | MIC (Staphylococcus aureus [13]): 8 µg/mL (≈ 23.4 µM)

O=C(O)c1cn(C2CC2)c2cc(N3CCCCC3)c(F)cc2c1=O
MIC (Streptococcus pyogenes): 8 µg/mL (≈ 24.2 µM) | MIC (Haemophilus influenzae): < 0.016 µg/mL | MIC [1]: 0.71 µg/mL (≈ 2.15 µM) | MIC (Proteus mirabilis): 2 µg/mL (≈ 6.05 µM) | MIC (Escherichia coli [2]): > 16 µg/mL | MIC (Staphylococcus aureus [3]): 0.03 µg/mL (≈ 0.0908 µM) | MIC (Enterococcus faecalis [5]): 0.25 µg/mL (≈ 0.757 µM) | MIC (Klebsiella pneumoniae): < 0.016 µg/mL | MIC (Pseudomonas aeruginosa [6]): 4 µg/mL (≈ 12.1 µM) | MIC (Staphylococcus aureus [7]): 0.25 µg/mL (≈ 0.757 µM) | MIC [14]: 0.495 µg/mL (≈ 1.5 µM) | MIC (Pseudomonas aeruginosa [8]): 4 µg/mL (≈ 12.1 µM) | MIC (Escherichia coli [9]): 0.25 µg/mL (≈ 0.757 µM) | MIC (Enterobacter cloacae): 0.5 µg/mL (≈ 1.51 µM) | MIC (Staphylococcus aureus [10]): 0.03 µg/mL (≈ 0.0908 µM) | MIC (Proteus vulgaris): > 16 µg/mL | MIC (Streptococcus pneumoniae): 1 µg/mL (≈ 3.03 µM) | MIC (Enterococcus faecalis [11]): 0.5 µg/mL (≈ 1.51 µM) | IC50 (DNA gyrase): 97.2 µM | MIC (Escherichia coli [12]): 0.125 µg/mL (≈ 0.378 µM) | MIC (Staphylococcus aureus [13]): > 16 µg/mL

Cc1c(N2CCN(C)CC2)c(N)cc2c(=O)c(C(=O)O)cn(C3CC3)c12
MIC (Streptococcus pyogenes): 4 µg/mL (≈ 11.2 µM) | MIC (Haemophilus influenzae): 0.03 µg/mL (≈ 0.0842 µM) | MIC [1]: 0.459 µg/mL (≈ 1.29 µM) | MIC (Proteus mirabilis): 1 µg/mL (≈ 2.81 µM) | MIC (Escherichia coli [2]): > 16 µg/mL | MIC (Staphylococcus aureus [3]): 1 µg/mL (≈ 2.81 µM) | MIC [4]: 3.36 µg/mL (≈ 9.44 µM) | MIC (Enterococcus faecalis [5]): 4 µg/mL (≈ 11.2 µM) | MIC (Klebsiella pneumoniae): 0.03 µg/mL (≈ 0.0842 µM) | MIC (Pseudomonas aeruginosa [6]): 2 µg/mL (≈ 5.61 µM) | MIC (Staphylococcus aureus [7]): 4 µg/mL (≈ 11.2 µM) | MIC (Pseudomonas aeruginosa [8]): 8 µg/mL (≈ 22.4 µM) | MIC (Escherichia coli [9]): 0.06 µg/mL (≈ 0.168 µM) | MIC (Enterobacter cloacae): 0.125 µg/mL (≈ 0.351 µM) | MIC (Staphylococcus aureus [10]): 1 µg/mL (≈ 2.81 µM) | MIC (Proteus vulgaris): 8 µg/mL (≈ 22.4 µM) | MIC (Streptococcus pneumoniae): 8 µg/mL (≈ 22.4 µM) | MIC (Enterococcus faecalis [11]): 2 µg/mL (≈ 5.61 µM) | IC50 (DNA gyrase): 10.7 µM | MIC (Escherichia coli [12]): 0.03 µg/mL (≈ 0.0842 µM) | MIC (Staphylococcus aureus [13]): > 16 µg/mL
